Measurements reported in US11357850B2, “Methods for treating breast cancer using INOS-inhibitory compositions” (The Methodist Hospital, priority 2014, dated 2022).

Experiments:
MDA-MB-231 xenografts [1] = assay: Lung metastases-preventing study, MDA-MB-231 L/G xenografts; format: in vivo, mice
Experimental: For the lung metastases-preventing study, MDA-MB-231 L/G cells were implanted as described above. The mice were randomized and treatments started 48 hrs after cell injection (n=5/group): 1) Vehicle (saline, i.p.), 2) L-NAME (80 mg/kg, i.p., daily for 35 days). Previous injection of luciferin, lungs were removed and washed in cold DMEM+10% FBS+1% antibiotics/antimycotic. Then, lungs were incubated in cold DMEM media containing 50 μM luciferin for 10 min. This protocol avoids the time lapse between lung extraction and exposure to luciferin. Fluorescent cancer cells were detected with an IVIS-200 in vivo imaging system (Perkin Elmer, Inc., Santa Clara, Calif., USA).
(§1) Self-renewal and tumor-initiating capacity was determined by MSFE and limiting-dilution assays, respectively, in single cells isolated from tumor tissue. Briefly, breast tumor tissue was minced, digested in DMEM:F12 medium with 100 U/mL of collagenase type 3 (Worthington, Lakewood, N.J., USA) and 0.8 U/mL of dispase (Gibco, Carlsbad, Calif., USA) at 37° C. for 45 min. MSFE was assayed in isolated single cells as stated above. The limiting dilution assay (LDA) was performed injecting either […] isolated cells from tumor tissue in the mammary fat pad of SCID Beige mice (n=12/group). Flow cytometric analysis of CD44^+/CD24^−/low cell population was assayed using published methods.
iNOS inhibition reduces tumor growth, tumor initiating capacity and prevents lung metastases in mouse models of triple negative breast cancer. Based on the in vitro data, the inventor next investigated whether iNOS inhibition was able to prevent tumor initiation and metastasis of breast tumor cells in a mouse model of lung metastases. Daily i.p. injections of 80 mg/kg L-NAME were given to MDA-MB-231 xenograft-bearing mice for 35 days. […] Additionally, tumor-initiating capacity of CSC was assessed with a limiting dilution assay (LDA) by injecting single cells isolated from tumor tissue (5×10^5 or 1×10^5 cells) in the right mammary fat pad. All the animals of vehicle group (n=5) developed tumors whereas treatment with L-NAME yielded 3/5 tumors at 1.5 weeks with 5×10^5 cells.
The inventor then examined whether iNOS inhibition was able to suppress metastasis to lungs in TNBC xenografts model. The luciferase/GFP-based MDA-MB-231 (MDA-MB-231 L/G) xenograft mouse model mimics the metastatic process to the lungs in patients. In this model of lung metastasis, cells metastasize from the primary tumor to lungs in ˜35 days after implantation. MDA-MB-231 L/G cells were injected in the right mammary fat pad of SCID mice and 80 mg/kg L-NAME was given daily for 35 days.

EMT-6 cells = settings: mouse, in vivo; cited from earlier work
C3L5 and C10 = settings: cited from earlier work
MDA-MB-231 [2] = assay: Cell proliferation assay (WST-1), iNOS inhibitors; format: cell-based, human; settings: highest concentration (4 mM), 96 hrs
Experimental: (§2) Cell Culture. Mesenchymal-like triple negative breast cancer cell lines, MDA-MB-231 and SUM159, were purchased from American Type Culture Collection and Asterand, respectively. […] Mammosphere forming efficiency (MSFE), cell proliferation and migration assays are detailed below. Cell culture and mammosphere forming efficiency assay. […] For mammosphere-forming efficiency (MSFE) assay, 2,000 (SUM159) and 5,000 (MDA-MB-231) cells/well were cultured in 0.5% methylcellulose (MethoCult H4100, StemCell Technologies) and MammoCult basal medium supplemented with 10% MammoCult proliferation supplement, 4 μg/mL heparin and 0.48 μg/mL hydrocortisone (StemCell Technologies, Vancouver, BC, CANADA). […] Primary MSFE was evaluated dividing mammosphere number by cell number. After trypsinization of primary MS, single cells were grown in 0.5% methylcellulose and mammosphere medium (as described above) in absence of treatment. Secondary MS were scanned, counted and secondary MSFE were assessed. For the mouse model of lung metastasis, MDA-MB-231 cells were transfected with a luciferase/GFP-based dual-reporter plasmid and stable clones (MDA-MB-231 L/G) selected with 1 mg/mL blasticidin (InvivoGen, San Diego, Calif., USA). […] Proliferation rate was determined by adding premixed WST-1 reagent (Clontech). After incubation at 37° C. for 3 hrs, absorbance was read at 450 nm (reference wavelength 690 nm).

SUM159 [3] = assay: Cell proliferation assay (WST-1), iNOS inhibitors; format: cell-based, human; settings: highest concentration (4 mM), 96 hrs
Experimental: as §2

MDA-MB-231 [4] = assay: Cell migration, wound healing assay; format: cell-based, human; settings: 96 hrs treatment, wound healing 12 hrs
Experimental: (§3) FIG. 18A and FIG. 18B show the migration of MDA-MB-231 and SUM159 cells was assessed by “wound healing” assay. Briefly, 3×10^5 cells were plated in a 6-well plate until confluence in growth medium. […] A “wound” was then created in the cell monolayer. Images were taken at 0 and 12 hrs. Wound-healing capacity was determined with the software Image J. Data were replicated in three independent experiments. Results were normalized to vehicle;
(§4) Cell migration capacity. Cell migration was determined with a “wound healing assay.” Briefly, 3×10^5 cells/well were grown in 6-well plates until confluence. […] To avoid an impact on cell proliferation, low serum medium was changed by regular growth medium in presence of inhibitors for 24 hrs (96 hrs total). A “wound” was then created in the cell monolayer with a 100-4, pipette tip. Images were taken at 0 hrs, and cells were allowed to heal the wound for 12 hrs. Wound-healing capacity was determined with the software Image J. Data were replicated in three independent experiments.

SUM159 [5] = assay: Cell migration, wound healing assay; format: cell-based, human; settings: 96 hrs treatment, wound healing 12 hrs
Experimental: as §3, §4

SUM159 cells = assay: Nitric oxide production (nitrate/nitrite fluorometric assay); format: cell-based, human; settings: nitrate+nitrite in supernatant, up to 24 hrs
Source text: Nitric oxide production in SUM159 cells. […] Aliquots of cell culture supernatant were taken at 0, 0.5, 2, 6 and 24 hrs for nitrate+nitrite (total nitric oxide) production with the nitrate/nitrite fluorometric assay kit (Cayman Chemical) following manufacturer's instructions.

MDA-MB-468 = assay: PD-L1 expression in TNBC cell line; format: cell-based, human
HCC-70 = assay: PD-L1 expression in TNBC cell line; format: cell-based, human
SUM159 xenografts = SUM159 xenografts treated with L-NMMA, docetaxel, combination; format: in vivo, mice
Experimental: (§5) Animal Studies. Female SCID Beige mice (4-5 weeks old) (Harlan Laboratories, Houston, Tex., USA) were housed under standard laboratory conditions (22° C.; 12 hrs/12 hrs light/dark cycle and free access to food and water). Either MDA-MB-231 or SUM159 cells (3×10^6) were injected in the right mammary fat pad. Once the tumors reached 150-200 mm^3, the mice were randomized into different groups as follows (n=10/group): 1) Vehicle (saline, i.p.), 2) L-NMMA (either 80 mg/kg or 200 mg/kg, i.p., daily), 3) Docetaxel (20 mg/kg), 4) Combo (L-NMMA and docetaxel).
as §1
To answer this question, daily injections of 80 mg/kg L-NMMA were first given to SUM159 xenograft-bearing mice alone or in combination with docetaxel (20 mg/kg). […] The inventor next analyzed the impact on CSC self-renewal by the MSFE assay.

MDA-MB-231 xenografts [6] = assay: MDA-MB-231 xenografts treated with L-NMMA, docetaxel, combination; format: in vivo, mice
Experimental: as §5, §1
The role of L-NMMA was then investigated, either alone or in combination with docetaxel in a different TNBC mouse model. Docetaxel (20 mg/kg at days 0 and 21) and 200 mg/kg L-NMMA (daily) were given to MDA-MB-231 xenograft-bearing mice for 31 days.

[7] = LC-MS/MS quantification of methylarginine in plasma and tumor tissue; format: in vivo, mice
Experimental: Metabolite profiling by liquid chromatography-tandem mass spectrometry (LC-MS/MS). MDA-MB-231 and SUM159 xenograft tissue from animal studies (L-NMMA given daily) as well as plasma samples were prepared as previously described. L-NMMA (200 mg/kg) was orally administered by gavage to female SCID Beige mice (n=5). Blood was drawn before (baseline, 0 hrs) and after L-NMMA administration (0.5, 2, 12, 24 hrs). LC-MS/MS platform used for metabolite profiling was previously described. Ratiometric quantification of methylarginine (L-NMMA) and citrulline was determined as ion abundance levels in plasma and tumor tissue.

iNOS = iNOS (Homo sapiens, UniProt P35228); assay: LC-MS/MS quantification of citrulline in xenograft tissue; format: in vivo, mice; settings: SUM159 xenograft tissue, 24 hrs after completion of treatment
Experimental: Ratiometric quantification of citrulline SUM159 xenograft tissue LC-MS/MS (Student's t-test). […] Results were normalized to vehicle. Data are presented as mean±SEM. ****p<0.0001, ***p<0.001, **p<0.01, *p<0.05; one-way ANOVA and Bonferroni's post-hoc test;
Metabolite profiling by liquid chromatography-tandem mass spectrometry (LC-MS/MS). MDA-MB-231 and SUM159 xenograft tissue from animal studies (L-NMMA given daily) as well as plasma samples were prepared as previously described. […] LC-MS/MS platform used for metabolite profiling was previously described. Ratiometric quantification of methylarginine (L-NMMA) and citrulline was determined as ion abundance levels in plasma and tumor tissue.

[8] = cited from earlier work
[9] = cited from earlier work; remark: listed apart in the source

For COC(=O)[C@@H](N)CCCNC(=N)N[N+](=O)[O-] [L-NAME, N^5-[imino(nitroamino)methyl]-L-ornithine methyl ester], the “ex vivo imaging of lungs in presence of luciferin (lung metastasis)” value (MDA-MB-231 xenografts [1]; 80 mg/kg daily for 35 days) was “higher fluorescence in vehicle group compared to L-NAME group”, the “MSFE of primary MS of cells isolated from tumor tissue” value (MDA-MB-231 xenografts [1]; 80 mg/kg i.p. daily for 35 days) was “significantly reduced” and the tumor growth (MDA-MB-231 xenografts [1]; 80 mg/kg i.p. daily for 35 days, p=0.001) was “significantly reduced tumor growth”. The “secondary MSFE of cells isolated from tumor tissue” value (MDA-MB-231 xenografts [1]; 80 mg/kg i.p. daily, compared to vehicle group) was “diminished but not significantly”, the “limiting dilution assay, tumors developed” value (MDA-MB-231 xenografts [1]; 1.5 weeks with 5×10^5 cells, vehicle all animals (n=5)) was 3/5 and the “limiting dilution assay, tumors developed” value (MDA-MB-231 xenografts [1]; 2.5 weeks with 1×10^5 cells) was 0/5. For the same molecule, the “tumor growth and lung metastasis” value (EMT-6 cells) was “decrease tumor growth and lung metastasis” and the “invasive and migrating potential” value (C3L5 and C10) was “inhibited the invasive and migrating potential”.

In the case of [H]/N=C(/NC)NCCC[C@H](N)C(=O)O [L-NMMA, N^G-monomethyl-L-arginine], the proliferation (MDA-MB-231 [2]) is reported as “anti-proliferative activity”, the proliferation (SUM159 [3]) is reported as “anti-proliferative activity” and the migration (MDA-MB-231 [4]; micromolar range) is reported as “not consistent and less effective”. The migration (MDA-MB-231 [4]; millimolar range) was “reduction in migration capacity”, the migration (SUM159 [5]; micromolar range) was “not consistent and less effective” and the migration (SUM159 [5]; millimolar range) was “reduction in migration capacity”. The “total NO production” value (SUM159 cells) was “decrease in total NO production”, the PD-L1 expression (MDA-MB-468) was “increase the PD-L1 expression” and the PD-L1 expression (HCC-70) was “increase the PD-L1 expression”. The “limiting dilution assay, tumors” value (SUM159 xenografts; 7 weeks with 5×10^4 cells, vehicle 12/12) was 4/12, the tumor growth (SUM159 xenografts; L-NMMA 80 mg/kg daily, alone or with docetaxel 20 mg/kg, after 10 days) was “no differential effect” and the tumor growth (SUM159 xenografts; L-NMMA daily dose increased to 200 mg/kg, alone or with docetaxel) was “efficiently blocked”. The “tumor cell proliferation by immunohistochemistry (Ki67)” value (SUM159 xenografts; mouse, in vivo) was “Higher proliferating rate in vehicle and chemotherapy groups compared to L-NMMA and combination groups”, the “limiting dilution assay, tumors” value (SUM159 xenografts; week nine with 2×10^4 cells, vehicle 7/12) was 0/12 and the “limiting dilution assay, tumors” value (MDA-MB-231 xenografts [6]; 5 weeks with 5×10^4 cells, vehicle 12/12) was 1/12. The tumor growth (MDA-MB-231 xenografts [6]; L-NMMA 200 mg/kg daily, docetaxel 20 mg/kg days 0 and 21, 31 days) was “reduced tumor growth”, the “limiting dilution assay, tumors” value (MDA-MB-231 xenografts [6]; after six weeks, vehicle 6/12) was 3/12 and the “primary MS of cells isolated from tumor tissue” value (MDA-MB-231 xenografts [6]; compared to vehicle and chemotherapy alone groups) was “less”. The “proliferation rate by immunohistochemistry (Ki67)” value (MDA-MB-231 xenografts [6]; mouse, in vivo) was “lower proliferation rate”, the “secondary MS of cells isolated from tumor tissue” value (MDA-MB-231 xenografts [6]; mouse, in vivo) was “reduce secondary MS” and the L-NMMA plasma levels ([7]; 200 mg/kg oral gavage, 0.5, 2, 12, 24 hrs) was “cleared rapidly”. For the same molecule, the “L-NMMA in tumor tissue” value ([7]; 24 hrs after completion of treatment) was “accumulates in the tumor tissue”, the “conversion of L-arginine to L-citrulline and NO by iNOS” value (iNOS) was “inhibits the conversion of L-arginine to L-citrulline and NO by iNOS” and the “duration of elevation in BP” value (after the last injection of L-NMMA) was “transient and disappeared 24 hrs after the last injection”. The mean systolic pressure (oral L-NMMA 200 mg/kg, basal levels 120 mmHg) was 147 mm Hg, the “time to normalization of blood pressure upon ceasing the infusion” value ([8]; 12 mg/kg) was “less than 5 min” and the “transient increase in systolic blood pressure” value ([8]; 12 mg/kg) was “up to 25 mm Hg”. For the same molecule, the “safety of bolus injections” value ([8]; 3, 6, and 12 mg/kg prior to infusion of IL-2, n=3 per cohort) was “safe”, the blood pressure ([8]; 3 and 6 mg/kg) was “remained unchanged” and the “clinically apparent side effects” value ([8]; 3 and 6 mg/kg) was “did not induce clinically apparent side effects”. The “hematologic, liver, or renal abnormalities” value ([8]; human, in vivo) was “not associated with any hematologic, liver, or renal abnormalities”, the tolerability ([9]; in vivo) was “well tolerated with few AEs other than transient (minutes) reversible hypertension” and the mortality ([9]; myocardial infarction complicated by refractory cardiogenic shock) was “no effect on mortality”.
